Assay in all cases: Continuous Assay
In experiment [1] the target is T1, Dihydroorotate dehydrogenase (quinone), mitochondrial (Plasmodium falciparum, UniProt Q54A96).
T1 sequence (Q54A96 whole entry): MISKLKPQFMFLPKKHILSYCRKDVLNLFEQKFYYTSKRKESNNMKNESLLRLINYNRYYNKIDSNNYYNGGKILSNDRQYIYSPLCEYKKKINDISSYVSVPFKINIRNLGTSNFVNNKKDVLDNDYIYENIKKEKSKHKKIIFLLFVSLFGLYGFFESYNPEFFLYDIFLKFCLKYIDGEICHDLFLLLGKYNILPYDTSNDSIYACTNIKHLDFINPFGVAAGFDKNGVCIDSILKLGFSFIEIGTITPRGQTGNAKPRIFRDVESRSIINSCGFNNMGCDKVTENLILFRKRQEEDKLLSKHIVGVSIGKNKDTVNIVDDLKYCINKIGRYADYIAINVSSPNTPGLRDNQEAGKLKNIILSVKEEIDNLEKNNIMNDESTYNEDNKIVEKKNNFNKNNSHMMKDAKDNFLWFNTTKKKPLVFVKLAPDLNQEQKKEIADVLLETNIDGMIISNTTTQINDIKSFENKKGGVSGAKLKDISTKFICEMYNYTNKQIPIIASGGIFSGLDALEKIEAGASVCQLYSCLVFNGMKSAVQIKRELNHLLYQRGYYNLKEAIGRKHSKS
Here is the method: (§1) Assay was determined using a continuous assay.

The target of experiment [2] is Dihydroorotate dehydrogenase (quinone), mitochondrial (Homo sapiens, UniProt Q02127). The procedure:
as §1

In experiment [3] the target is T2, Dihydroorotate dehydrogenase (quinone), mitochondrial [100-517] (Plasmodium berghei (strain Anka), UniProt A0A509AEH5).
T2 construct: 100-517
T2 sequence (A0A509AEH5 whole entry): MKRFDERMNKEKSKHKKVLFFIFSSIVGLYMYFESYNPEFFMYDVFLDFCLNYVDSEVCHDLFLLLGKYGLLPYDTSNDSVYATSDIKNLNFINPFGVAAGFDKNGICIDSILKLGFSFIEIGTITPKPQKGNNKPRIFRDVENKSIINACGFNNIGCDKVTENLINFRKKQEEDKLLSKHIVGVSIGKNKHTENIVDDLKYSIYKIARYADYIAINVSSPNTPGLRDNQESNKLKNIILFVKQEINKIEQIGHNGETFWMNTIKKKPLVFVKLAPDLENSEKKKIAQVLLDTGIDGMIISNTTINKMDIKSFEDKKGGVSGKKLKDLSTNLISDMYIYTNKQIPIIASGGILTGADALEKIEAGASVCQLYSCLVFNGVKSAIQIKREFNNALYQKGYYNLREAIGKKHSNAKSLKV
Here is the method: as §1

The target in experiment [4] is T3, Dihydroorotate dehydrogenase (quinone), mitochondrial (Plasmodium vivax (strain Salvador I), UniProt A5K1N1).
T3 sequence (A5K1N1 whole entry): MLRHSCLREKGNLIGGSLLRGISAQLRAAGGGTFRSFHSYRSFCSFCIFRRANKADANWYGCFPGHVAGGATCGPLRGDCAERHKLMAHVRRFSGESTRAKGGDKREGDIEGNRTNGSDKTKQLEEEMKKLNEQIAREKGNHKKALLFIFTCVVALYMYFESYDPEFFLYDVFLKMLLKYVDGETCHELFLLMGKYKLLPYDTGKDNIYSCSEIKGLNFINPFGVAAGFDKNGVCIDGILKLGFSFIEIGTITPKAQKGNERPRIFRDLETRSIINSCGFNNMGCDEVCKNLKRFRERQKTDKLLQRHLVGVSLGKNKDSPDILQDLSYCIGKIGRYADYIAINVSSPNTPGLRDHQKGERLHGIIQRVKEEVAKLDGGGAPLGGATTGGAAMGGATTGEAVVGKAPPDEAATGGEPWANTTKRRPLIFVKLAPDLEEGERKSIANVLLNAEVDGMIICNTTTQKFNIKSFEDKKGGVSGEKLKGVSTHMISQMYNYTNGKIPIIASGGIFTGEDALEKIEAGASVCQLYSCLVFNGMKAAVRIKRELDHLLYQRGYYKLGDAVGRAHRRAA
The procedure:
as §1

The text below walks through data of BindingDB's records for doi:10.1074/jbc.M804990200 (Harvard Medical School, 2008).

A word on the IC50: it is the concentration needed to halve the response being measured. A low value points to higher potency.

Chain of Dihydroorotate dehydrogenase (quinone), mitochondrial (Homo sapiens, UniProt Q02127) (Q02127 whole entry): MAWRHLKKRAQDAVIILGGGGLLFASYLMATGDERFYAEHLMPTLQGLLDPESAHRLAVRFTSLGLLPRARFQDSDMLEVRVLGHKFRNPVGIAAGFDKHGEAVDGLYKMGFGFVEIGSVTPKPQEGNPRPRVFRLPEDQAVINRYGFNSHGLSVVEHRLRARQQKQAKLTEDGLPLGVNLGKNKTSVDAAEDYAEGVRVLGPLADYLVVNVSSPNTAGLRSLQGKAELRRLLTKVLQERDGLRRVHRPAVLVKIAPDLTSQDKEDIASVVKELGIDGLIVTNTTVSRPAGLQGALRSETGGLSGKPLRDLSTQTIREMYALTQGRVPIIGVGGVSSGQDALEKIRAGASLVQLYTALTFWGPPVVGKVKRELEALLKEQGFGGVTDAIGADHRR

Regarding `CCCNC(=O)c1ccc(-n2c(C)cc3ccccc32)s1` [US8703811, 1], the IC50 in experiment [1] was 420 nM; in experiment [2], more than 30000 nM.
On to `Cc1ccccc1/C=C/c1cc(O)c2ccccc2n1` [US8703811, 2], for which the IC50 was 930 nM in experiment [1], 560 nM in experiment [3], more than 30000 nM in experiment [2] and 5600 nM in experiment [4].
As to `CCCCCC1CCCc2c1nc1ccccc1c2O` (centres undefined) [US8703811, 3], the concentration for half-maximal inhibition (IC50) is 340 nM in experiment [1], 110 nM in experiment [3], more than 30000 nM in experiment [2] and 510 nM in experiment [4].
Turning to `O=C(NC1CC1)c1ccc(N2CCSc3ccccc32)s1` [US8703811, 5], it took 250 nM to reach half-maximal inhibition in experiment [1] (IC50).
In the case of `CCOC(=O)c1[nH]c(C)c(Cc2ccc(OCC)cc2)c1C` [US8703811, 6], the figures for the IC50 in experiment [1], in experiment [3] and in experiment [2] were 83 nM, 60 nM and more than 30000 nM, respectively.
